Here are results for 1 compound from ChEMBL document CHEMBL5380843 (J Med Chem, 2023).

The nature of series [1]: MRT (0 to infinity) in Sprague-Dawley rat at 1 mg/kg, iv measured upto 24 hrs by LC-MS/MS analysis. Format: ADME, organism-based. The conditions noted are these: in vivo.
A short description of series [2]: Selectivity index, ratio of CC50 for cytotoxicity against human MT4 cells to EC50 for antiviral activity against wild type HIV-1 IIIB infected in human MT4 cells. It is filed as toxicity, cell-based. Conditions: read-out: Ratio CC50/EC50.
Series [3] in a line: Cytotoxicity against human MT4 cells assessed as reduction in cell viability incubated for 5 days by MTT assay. Format: toxicity, cell-based. Conditions: time 5 day. For orientation: Formazan colour is commonly taken as a measure of viable cells.
The test system of series [4] is Human immunodeficiency virus 1. Nature of the series: Antiviral activity against wild type HIV-1 IIIB harboring reverse transcriptase […] mutant infected in human MT4 cells assessed as protection against virus-induced cytopathic effect incubated for 5 days by MTT assay. Format: functional, organism-based. Conditions: Human immunodeficiency virus 1, IIIB, MT4, 120 h. (In general: Cytopathic effects are the visible damage that an infection or toxin causes in cultured cells.)

Series [5] deals with Human immunodeficiency virus 1. Briefly: Antiviral activity against wild type HIV-1 IIIB harboring reverse transcriptase Y181C mutant infected in human MT4 cells assessed as protection against virus-induced cytopathic effect incubated for 5 days by MTT assay. Format: functional, organism-based. The conditions noted are these: Human immunodeficiency virus 1, IIIB, MT4, 120 h.

Series [6] deals with Human immunodeficiency virus 1. Briefly: Antiviral activity against wild type HIV-1 IIIB harboring reverse transcriptase Y188L mutant infected in human MT4 cells assessed as protection against virus-induced cytopathic effect incubated for 5 days by MTT assay. It is filed as functional, organism-based. The conditions noted are these: Human immunodeficiency virus 1, IIIB, MT4, 120 h.

The target of the next series is T1, Cytochrome P450 1A2 (Homo sapiens, UniProt P05177).
T1 sequence (P05177 whole entry): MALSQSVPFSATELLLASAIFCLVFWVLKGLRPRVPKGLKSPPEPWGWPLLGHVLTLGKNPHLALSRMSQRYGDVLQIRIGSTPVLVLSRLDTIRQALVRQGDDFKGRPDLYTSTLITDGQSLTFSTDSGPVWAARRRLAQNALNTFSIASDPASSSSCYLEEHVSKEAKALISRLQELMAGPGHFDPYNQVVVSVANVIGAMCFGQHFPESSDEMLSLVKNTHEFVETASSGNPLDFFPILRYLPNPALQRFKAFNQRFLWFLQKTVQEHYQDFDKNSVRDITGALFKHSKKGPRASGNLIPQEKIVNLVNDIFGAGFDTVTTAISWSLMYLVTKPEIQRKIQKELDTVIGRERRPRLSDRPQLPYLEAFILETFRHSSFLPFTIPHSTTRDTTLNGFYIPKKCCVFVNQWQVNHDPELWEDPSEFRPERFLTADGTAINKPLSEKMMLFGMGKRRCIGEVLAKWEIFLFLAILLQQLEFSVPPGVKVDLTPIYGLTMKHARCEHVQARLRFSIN
Briefly: Inhibition of CYP1A2 in human liver microsomes using phenacetin as substrate incubated for 15 to 45 mins in presence of NADPH. It is filed as ADME, Microsome. (In general: Liver microsomes are vesicles of endoplasmic reticulum, rich in cytochrome P450 enzymes.)

A short description of series [7]: Half life in Sprague-Dawley rat at 1 mg/kg, iv measured upto 24 hrs by LC-MS/MS analysis. It is filed as ADME, organism-based. The conditions noted are these: in vivo.
Series [8] is described as follows: Acute toxicity in 12 hr fasted male CD-1 (ICR) mouse assessed as death at 2 g/Kg, IG measured after 14 days. Conditions: in vivo, po, 2000 mg/kg, 336 h, time 14 day.
Series [9] can be described thus: Acute toxicity in 12 hr fasted female CD-1 (ICR) mouse assessed as death at 2 g/Kg, IG measured after 14 days. The conditions noted are these: in vivo, po, 2000 mg/kg, 336 h, time 14 day.
Series [10] is described as follows: Acute toxicity in 12 hr fasted male CD-1(ICR) mouse assessed as changes in body weight at 2 g/Kg, IG measured after 14 days. The conditions noted are these: in vivo, po, 2000 mg/kg, 336 h, time 14 day.
Series [11] is described as follows: Acute toxicity in 12 hr fasted female CD-1(ICR) mouse assessed as pathological damage in heart at 2 g/Kg, IG measured after 14 days by H and E staining based analysis. It is filed as tissue-based. Conditions: in vivo, po, 2000 mg/kg, 336 h, time 14 day.
The nature of series [12]: Acute toxicity in 12 hr fasted male CD-1(ICR) mouse assessed as pathological damage in lung at 2 g/Kg, IG measured after 14 days by H and E staining based analysis. It is filed as tissue-based. Conditions: in vivo, po, 2000 mg/kg, 336 h, time 14 day.
A short description of series [13]: Acute toxicity in 12 hr fasted female CD-1(ICR) mouse assessed as pathological damage in lung at 2 g/Kg, IG measured after 14 days by H and E staining based analysis. It is filed as tissue-based. Conditions: in vivo, po, 2000 mg/kg, 336 h, time 14 day.
Series [14] is described as follows: Acute toxicity in 12 hr fasted male CD-1(ICR) mouse assessed as pathological damage in kidney at 2 g/Kg, IG measured after 14 days by H and E staining based analysis. The conditions noted are these: in vivo, po, 2000 mg/kg, 336 h, time 14 day. It is filed as tissue-based.
A short description of series [15]: Acute toxicity in 12 hr fasted female CD-1(ICR) mouse assessed as pathological damage in brain at 2 g/Kg, IG measured after 14 days by H and E staining based analysis. Format: tissue-based. Conditions: in vivo, po, 2000 mg/kg, 336 h, time 14 day.

The compound `CONC(=O)c1cnc(Nc2ccc(C#N)cc2)nc1Oc1c(C)cc(-c2ccc(C#N)cc2)cc1C` came in with an MRT inf in series [1] of 3.75 h. Further, the selectivity ratio in series [2] was > 17400. Also, in series [3], the CC50 at 120 h was > 40800 nM. The EC50 in [4] is 13 nM; in [5], 29 nM; in [6] it was 52 nM. Also, the IC50 on Cytochrome P450 1A2 was > 50000 nM. Moreover, in series [7], the half-life was 3.66 h. Also, the Activity entry in series [8], in [9], in series [10], in [11], in [12] and in series [13] was “Non-Toxic” throughout. Further, the Activity entry in [14] and in [15] was “Non-Toxic” in each case.

What is called MRT inf is a mean duration of stay, worked out from the concentration-time curve. A word on the CC50: it is the concentration at which the toxic effect on the cells reaches its halfway point. A word on the EC50: it is the concentration that produces a half-maximal response. What is called IC50 is the concentration at which inhibition is half-maximal. By half-life is commonly meant the time in which the quantity being followed falls by half. The low end stands for rapid decline, the high end for slow decline.
